This note sets out measurements from patent US20240383875A1, “Benzimidazole Pyridine Derivatives” (Hoffmann-La Roche Inc., priority 2022, published 2024).

Common to all, as to format: biochemical
For test [1], the target named is SIK1 (Homo sapiens, UniProt P57059). As to the kind of experiment: Enzymatic activity assay SIK1, RapidFire mass spectrometry (phosphorylation of CHK-peptide). The note with it: RapidFire MS, inhibition of SIK1; read-out: SIK1 RF IC50. Put shortly: (§1)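 Compounds (12-point, 3-fold, generally 30 μM to 170 pM) were pre-incubated 30 min at ambient temperature with SIK1 (5 nM), SIK2 (0.5 nM) or SIK3 (1.5 nM) in HEPES pH 7.0/magnesium acetate buffer. CHK-peptide (10 μM solution) and ATP (100 μM solution) were then added for 45 min before formic acid quench.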
Chain of SIK1 (P57059 whole entry): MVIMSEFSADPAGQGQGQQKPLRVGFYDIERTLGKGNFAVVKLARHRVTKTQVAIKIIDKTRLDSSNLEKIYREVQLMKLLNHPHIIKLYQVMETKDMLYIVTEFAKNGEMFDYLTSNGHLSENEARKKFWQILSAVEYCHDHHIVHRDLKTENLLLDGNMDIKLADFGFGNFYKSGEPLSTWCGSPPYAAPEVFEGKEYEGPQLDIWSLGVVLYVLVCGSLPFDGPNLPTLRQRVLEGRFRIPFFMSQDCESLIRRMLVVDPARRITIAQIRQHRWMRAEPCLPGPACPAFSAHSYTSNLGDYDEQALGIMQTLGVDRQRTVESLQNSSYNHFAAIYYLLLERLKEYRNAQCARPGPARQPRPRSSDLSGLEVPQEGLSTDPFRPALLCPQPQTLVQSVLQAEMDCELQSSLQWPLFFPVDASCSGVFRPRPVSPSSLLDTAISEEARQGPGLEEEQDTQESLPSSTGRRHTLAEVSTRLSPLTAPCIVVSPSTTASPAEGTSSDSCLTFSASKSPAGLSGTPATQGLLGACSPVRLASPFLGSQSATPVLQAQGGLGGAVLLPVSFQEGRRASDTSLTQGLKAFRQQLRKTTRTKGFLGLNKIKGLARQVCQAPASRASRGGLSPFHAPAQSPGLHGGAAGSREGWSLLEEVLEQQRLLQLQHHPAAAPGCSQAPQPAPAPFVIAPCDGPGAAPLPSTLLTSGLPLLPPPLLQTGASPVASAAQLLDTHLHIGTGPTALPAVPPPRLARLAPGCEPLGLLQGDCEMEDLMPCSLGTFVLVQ

Test [2] has as its target SIK3 (Homo sapiens, UniProt Q9Y2K2). The test is described as follows: Enzymatic activity assay SIK3, RapidFire mass spectrometry (phosphorylation of CHK-peptide). The note with it: RapidFire MS, inhibition of SIK3; read-out: SIK3 RF IC50. Put shortly: as §1
For test [3], the target named is SIK2 (Homo sapiens, UniProt Q9H0K1). As to the kind of experiment: Enzymatic activity assay SIK2, RapidFire mass spectrometry (phosphorylation of CHK-peptide). The following applies: RapidFire MS, inhibition of SIK2; read-out: SIK2 RF IC50. Put shortly:
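SIK2 (0.5 nM) in pH 7.0 HEPES buffer with 10 mM Mg acetate phosphorylates CHK-peptide (10 μM solution) with 100 μM ATP solution, 45 min ambient, then formic acid quench.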

The term IC50 denotes the point on the concentration scale where inhibition reaches its midpoint.

Chain of SIK3 (Q9Y2K2 whole entry): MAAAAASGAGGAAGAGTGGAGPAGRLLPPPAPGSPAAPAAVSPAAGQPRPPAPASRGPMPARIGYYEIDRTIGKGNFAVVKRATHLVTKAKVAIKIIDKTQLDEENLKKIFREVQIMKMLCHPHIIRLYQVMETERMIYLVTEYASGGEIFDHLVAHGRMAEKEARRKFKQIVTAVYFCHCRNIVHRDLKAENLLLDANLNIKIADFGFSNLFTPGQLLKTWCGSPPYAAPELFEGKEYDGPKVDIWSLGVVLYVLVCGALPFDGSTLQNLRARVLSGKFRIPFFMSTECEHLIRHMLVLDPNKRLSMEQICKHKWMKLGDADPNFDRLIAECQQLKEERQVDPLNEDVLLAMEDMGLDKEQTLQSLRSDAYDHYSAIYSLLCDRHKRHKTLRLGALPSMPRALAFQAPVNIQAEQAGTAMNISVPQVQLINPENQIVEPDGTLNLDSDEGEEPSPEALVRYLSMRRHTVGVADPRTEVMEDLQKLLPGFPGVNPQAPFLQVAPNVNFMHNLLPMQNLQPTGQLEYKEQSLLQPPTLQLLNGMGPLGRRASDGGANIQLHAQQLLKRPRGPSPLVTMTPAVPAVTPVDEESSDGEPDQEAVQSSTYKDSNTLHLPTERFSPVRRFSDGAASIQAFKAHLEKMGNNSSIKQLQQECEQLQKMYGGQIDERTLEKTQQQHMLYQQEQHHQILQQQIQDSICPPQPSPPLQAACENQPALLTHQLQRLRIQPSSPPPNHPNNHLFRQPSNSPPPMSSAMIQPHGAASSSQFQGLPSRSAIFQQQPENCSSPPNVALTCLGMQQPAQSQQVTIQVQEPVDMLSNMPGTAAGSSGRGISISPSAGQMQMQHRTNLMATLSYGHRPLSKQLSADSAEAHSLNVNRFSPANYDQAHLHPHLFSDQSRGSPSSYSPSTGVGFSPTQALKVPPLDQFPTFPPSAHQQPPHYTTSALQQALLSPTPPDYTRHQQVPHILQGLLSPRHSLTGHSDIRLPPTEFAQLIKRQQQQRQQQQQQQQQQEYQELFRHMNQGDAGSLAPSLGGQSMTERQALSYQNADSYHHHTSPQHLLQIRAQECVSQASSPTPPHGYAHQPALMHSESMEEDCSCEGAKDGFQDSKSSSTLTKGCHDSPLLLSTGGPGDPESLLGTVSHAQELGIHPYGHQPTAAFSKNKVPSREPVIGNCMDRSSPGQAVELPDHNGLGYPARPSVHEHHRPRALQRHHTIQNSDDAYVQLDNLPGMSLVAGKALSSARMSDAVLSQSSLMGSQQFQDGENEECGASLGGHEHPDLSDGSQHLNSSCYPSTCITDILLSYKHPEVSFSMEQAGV
Chain of SIK2 (Q9H0K1 whole entry): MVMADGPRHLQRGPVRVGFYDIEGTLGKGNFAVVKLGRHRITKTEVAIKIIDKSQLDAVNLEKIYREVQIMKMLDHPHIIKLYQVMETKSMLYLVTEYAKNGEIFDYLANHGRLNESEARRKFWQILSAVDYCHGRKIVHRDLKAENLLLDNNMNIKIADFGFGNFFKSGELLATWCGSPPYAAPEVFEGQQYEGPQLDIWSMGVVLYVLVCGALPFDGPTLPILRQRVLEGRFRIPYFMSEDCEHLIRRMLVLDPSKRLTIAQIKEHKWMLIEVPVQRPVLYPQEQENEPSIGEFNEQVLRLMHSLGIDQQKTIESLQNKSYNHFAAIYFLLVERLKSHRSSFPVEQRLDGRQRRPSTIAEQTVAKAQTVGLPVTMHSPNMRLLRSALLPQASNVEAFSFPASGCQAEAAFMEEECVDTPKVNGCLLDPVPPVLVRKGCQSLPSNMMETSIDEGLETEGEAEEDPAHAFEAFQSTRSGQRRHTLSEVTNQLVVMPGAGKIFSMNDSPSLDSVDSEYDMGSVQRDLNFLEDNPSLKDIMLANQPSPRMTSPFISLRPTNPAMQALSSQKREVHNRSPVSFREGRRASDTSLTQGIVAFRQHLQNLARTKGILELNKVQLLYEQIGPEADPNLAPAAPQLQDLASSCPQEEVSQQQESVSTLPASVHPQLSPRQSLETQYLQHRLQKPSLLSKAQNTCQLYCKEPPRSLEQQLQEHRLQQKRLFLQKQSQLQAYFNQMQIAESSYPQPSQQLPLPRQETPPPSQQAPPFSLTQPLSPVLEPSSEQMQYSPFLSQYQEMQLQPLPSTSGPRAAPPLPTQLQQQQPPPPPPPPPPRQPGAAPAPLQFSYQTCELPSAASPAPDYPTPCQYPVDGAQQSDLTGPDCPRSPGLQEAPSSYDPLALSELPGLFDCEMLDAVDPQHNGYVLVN

Take `Cc1cc(C#N)nn1-c1nc(-n2cnc3cc(CN4CCCS4(=O)=O)ccc32)ccc1C(C)O` (stereo not drawn) [Example 201, 1-[6-[5-[(1,1-Dioxo-1,2-thiazolidin-2-yl)methyl]benzimidazol-1-yl]-3-(1-hydroxyethyl)-2-pyridyl]-5-methyl-pyrazole-3-carbonitrile]: the IC50 in test [1] is 111 nM; in test [2] it was 321 nM; in test [3], 62.1 nM.
The corresponding values for `Cc1ccc(Nc2cc3ncn(-c4ccc([C@@H](C)O)c(-n5nc(C#N)cc5C)n4)c3cc2F)nn1` [Example 237, 1-[6-[6-Fluoro-5-[(6-methylpyridazin-3-yl)amino]benzimidazol-1-yl]-3-[(1R)-1-hydroxyethyl]-2-pyridyl]-5-methyl-pyrazole-3-carbonitrile] are 7820 nM, 52.8 nM and 49.7 nM.
As to `COCCOc1ccc(Nc2ccc3c(c2)ncn3-c2ccc(C(C)O)c(-n3nc(C#N)cc3C)n2)nn1` (stereo not drawn) [Example 193, 1-[3-(1-Hydroxyethyl)-6-[5-[[6-(2-methoxyethoxy)pyridazin-3-yl]amino]benzimidazol-1-yl]-2-pyridyl]-5-methyl-pyrazole-3-carbonitrile], the IC50 in test [1] is 68 nM; in test [2], 1.9 nM; in test [3] it was 3.2 nM.
As to `Cc1ccc(Oc2ccc3c(c2)ncn3-c2ccc(C(C)O)c(-n3nc(C#N)cc3C)n2)nn1` (stereo not drawn) [Example 75, 1-[3-(1-Hydroxyethyl)-6-[5-(6-methylpyridazin-3-yl)oxybenzimidazol-1-yl]-2-pyridyl]-5-methyl-pyrazole-3-carbonitrile], the IC50 in test [1] was found to be 1440 nM; in test [2], 6.3 nM; in test [3], 38.4 nM.
`Cc1ccc(Nc2ccc3c(c2)ncn3-c2ccc(C(C)O)c(N3CC(C)(C#N)C3)n2)nn1` (stereo not drawn) [Example 183, 1-[3-(1-Hydroxyethyl)-6-[5-[(6-methylpyridazin-3-yl)amino]benzimidazol-1-yl]-2-pyridyl]-3-methyl-azetidine-3-carbonitrile]: the half-maximal inhibitory concentration (IC50) in test [1] is 2830 nM; in test [2], 17.5 nM; in test [3] it was 94.5 nM.
With `Cc1ccc(Nc2ccc3c(c2)ncn3-c2ccc(C(C)O)c(-c3cnn(CC4CCC4)c3C)n2)nn1` (stereo not drawn) [Example 273, 1-[2-[1-(Cyclobutylmethyl)-5-methyl-pyrazol-4-yl]-6-[5-[(6-methylpyridazin-3-yl)amino]benzimidazol-1-yl]-3-pyridyl]ethanol; formic acid], the IC50 in test [1] was 115 nM; in test [2] it was 1.5 nM; in test [3] it was 1.2 nM.
As to `Cc1ccc(Nc2ccc3c(c2)ncn3-c2ccc(C(C)O)c(-n3nc(C(F)(F)F)c4c3CCN(C)C4)n2)nn1` (stereo not drawn) [Example 171, 1-[6-[5-[(6-Methylpyridazin-3-yl)amino]benzimidazol-1-yl]-2-[5-methyl-3-(trifluoromethyl)-6,7-dihydro-4H-pyrazolo[4,3-c]pyridin-1-yl]-3-pyridyl]ethanol; formic acid], the 50% inhibitory concentration (IC50) worked out at 9 nM in test [1], 0.7 nM in test [2] and 0.3 nM in test [3].
Take `Cc1ccc(Nc2ccc3c(c2)ncn3-c2ccc(C(C)O)c(-c3cc(C(F)(F)F)ncc3C)n2)nn1` (stereo not drawn) [Example 332, 1-[6-[5-[(6-methylpyridazin-3-yl)amino]benzimidazol-1-yl]-2-[5-methyl-2-(trifluoromethyl)-4-pyridyl]-3-pyridyl]ethanol]: the IC50 amounted to 316 nM in test [1], 2.8 nM in test [2] and 5.3 nM in test [3].
`Cc1ccc(Nc2ccc3c(c2)ncn3-c2nc(-n3ccc(C#N)n3)c(C(C)O)cc2Cl)nn1` (stereo not drawn) [Example 239, 1-[5-Chloro-3-(1-hydroxyethyl)-6-[5-[(6-methylpyridazin-3-yl)amino]benzimidazol-1-yl]-2-pyridyl]pyrazole-3-carbonitrile]: the IC50 was above 30000 nM in test [1], 329 nM in test [2] and 1390 nM in test [3].
The matching figures for `Cc1cc(C#N)nn1-c1nc(-n2cnc3cc(N4CCC[C@H]4C#N)ccc32)ccc1C(C)O` (stereo partly drawn) [Example 342, 1-[6-[5-[(2S)-2-cyanopyrrolidin-1-yl]benzimidazol-1-yl]-3-(1-hydroxyethyl)-2-pyridyl]-5-methyl-pyrazole-3-carbonitrile]: 22 nM, 16.1 nM and 9.5 nM.
Consider `Cc1ccc(Nc2ccc3c(c2)ncn3-c2ccc(C(C)O)c(N3CCNC(C(F)(F)F)C3)n2)nn1` (stereo not drawn) [Example 331, 1-[6-[5-[(6-methylpyridazin-3-yl)amino]benzimidazol-1-yl]-2-[3-(trifluoromethyl)piperazin-1-yl]-3-pyridyl]ethanol], for which the half-maximal inhibitory concentration (IC50) in test [1] was 3340 nM; in test [2], 9.3 nM; in test [3] it was 71.5 nM.
In the case of `Cc1ccc(Nc2ccc3c(c2)ncn3-c2ccc([C@H](C)O)c(-n3nc(C(F)F)cc3C(F)F)n2)nn1` [Example 287, (1S)-1-[2-[3,5-bis(difluoromethyl)pyrazol-1-yl]-6-[5-[(6-methylpyridazin-3-yl)amino]benzimidazol-1-yl]-3-pyridyl]ethanol], the IC50 in test [1] was 109 nM; in test [2], 0.4 nM; in test [3], 0.8 nM.
The corresponding values for `Cc1cc(C#N)nn1-c1nc(-n2cnc3cc(N4CCN(C5COC5)CC4)ccc32)ccc1C(C)O` (stereo not drawn) [Example 67, 1-[3-(1-Hydroxyethyl)-6-[5-[4-(oxetan-3-yl)piperazin-1-yl]benzimidazol-1-yl]-2-pyridyl]-5-methyl-pyrazole-3-carbonitrile] are 767 nM, 97.9 nM and 132 nM.
`COc1cc2ncn(-c3ccc(C(O)C4CC4)c(-c4cccc(Cl)c4)n3)c2cc1OC` (stereo not drawn) [Example 25, (2-(3-Chlorophenyl)-6-(5,6-dimethoxy-1H-benzo[d]imidazol-1-yl)pyridin-3-yl)(cyclopropyl)methanol]: the IC50 in test [1] came to 777 nM; in test [2] it was 987 nM; in test [3], 605 nM.
On to `Cc1ccc(-c2ccc3c(c2)ncn3-c2ccc(C(C)O)c(-n3nc(C#N)cc3C)n2)nn1` (stereo not drawn) [Example 340, 1-[3-(1-hydroxyethyl)-6-[5-(6-methylpyridazin-3-yl)benzimidazol-1-yl]-2-pyridyl]-5-methyl-pyrazole-3-carbonitrile], for which the 50% inhibitory concentration (IC50) in test [1] is 42 nM; in test [2], 17.9 nM; in test [3] it was 20.3 nM.
As to `Cc1ccc(Nc2ccc3c(c2)ncn3-c2ccc(C(C)O)c(-c3ccc(O)cc3C#N)n2)nn1` (stereo not drawn) [Example 220, 5-Hydroxy-2-[3-(1-hydroxyethyl)-6-[5-[(6-methylpyridazin-3-yl)amino]benzimidazol-1-yl]-2-pyridyl]benzonitrile; formic acid], the IC50 in test [1] stood at 6740 nM; in test [2] it was 46.2 nM; in test [3], 154 nM.
With `COc1cc(C)n(-c2nc(-n3cnc4cc(Nc5ccc(C)nn5)ccc43)ccc2C(C)O)n1` (stereo not drawn) [Example 214, 1-[2-(3-Methoxy-5-methyl-pyrazol-1-yl)-6-[5-[(6-methylpyridazin-3-yl)amino]benzimidazol-1-yl]-3-pyridyl]ethanol; formic acid], the IC50 in test [1] stood at 1430 nM; in test [2], 3.5 nM; in test [3] it was 20.7 nM.
The corresponding values for `Cc1cc(C(=O)N(C)C)c(Nc2cc3ncn(-c4ccc([C@H](C)O)c(-n5nc(C(F)F)cc5C)n4)c3cc2F)nn1` [Example 345, 3-[[1-[6-[3-(difluoromethyl)-5-methyl-pyrazol-1-yl]-5-[(1~{S})-1-hydroxyethyl]-2-pyridyl]-6-fluoro-benzimidazol-5-yl]amino]-~{N},~{N},6-trimethyl-pyridazine-4-carboxamide] are 17200 nM, 60.2 nM and 48.9 nM.
In the case of `Cc1ccc(Nc2ccc3c(c2)ncn3-c2ccc(C(C)O)c(-n3nc(C#N)c4c3CCNC4)n2)nn1` (stereo not drawn) [Example 205, 1-[3-(1-Hydroxyethyl)-6-[5-[(6-methylpyridazin-3-yl)amino]benzimidazol-1-yl]-2-pyridyl]-4,5,6,7-tetrahydropyrazolo[4,3-c]pyridine-3-carbonitrile], the figures for the half-inhibitory concentration (IC50) in test [1], in test [2] and in test [3] were 3 nM, 0.3 nM and 0.3 nM, respectively.
As for `Cc1ccc(Nc2ccc3c(c2)ncn3-c2ccc([C@@H](C)O)c(-n3nc(C(F)F)cc3C)n2)nn1` [Example 230, (1R)-1-[2-[3-(Difluoromethyl)-5-methyl-pyrazol-1-yl]-6-[5-[(6-methylpyridazin-3-yl)amino]benzimidazol-1-yl]-3-pyridyl]ethanol], the IC50 in test [1] amounted to 7090 nM; in test [2], 19.7 nM; in test [3], 72.4 nM.
The matching figures for `CCC(O)c1ccc(-n2cnc3cc(OC)c(OC)cc32)nc1-c1ccc(F)cc1OC` (stereo not drawn) [Example 18, 1-(6-(5,6-Dimethoxy-1H-benzo[d]imidazol-1-yl)-2-(4-fluoro-2-methoxyphenyl)pyridin-3-yl)propan-1-ol]: 1000 nM, 2880 nM and 988 nM.
For the compound `Cc1ccc(Nc2ccc3c(c2)ncn3-c2ccc(C(C)O)c(-c3ccnn3C3CC3(F)F)n2)nn1` (stereo not drawn) [Example 227, 1-[2-[2-(2,2-Difluorocyclopropyl)pyrazol-3-yl]-6-[5-[(6-methylpyridazin-3-yl)amino]benzimidazol-1-yl]-3-pyridyl]ethanol; formic acid], the half-inhibitory concentration (IC50) in test [1] amounted to 4170 nM; in test [2] it was 28.6 nM; in test [3] it was 225 nM.
